System: H1975-OR xenografts
Experiment: H1975-OR xenograft tumor growth
Assay type: in vivo, mice
Conditions: osimertinib p.o. 5 mg/kg daily, NGI-189 i.p. 10 mg/kg every other day

C=CC(=O)Nc1cc(Nc2nccc(-c3cn(C)c4ccccc34)n2)c(OC)cc1N(C)CCN(C)C [osimertinib] was tested, and the tumor response was “did not respond”.
